# In PMC6100082, “Pyridine-Ureas as Potential Anticancer Agents: Synthesis and In Vitro Biological Evaluation” (Molecules : A Journal of Synthetic Chemistry and Natural …, 2018):
# Key:
# Format in all cases: cell-based, human
# [1] = system: COLO 205; experiment: NCI one-dose SRB assay (Colon Cancer); details: for Growth Percent: COLO 205, 1.00E-5 Molar; for inhibition at 10 µM: Homo sapiens, read-out: Percentage growth inhibition (GI%)
# Protocol: (§1) The structures of all the newly prepared pyridine-ureas 8a–n were submitted to the National Cancer Institute (NCI) Developmental Therapeutic Program. Eight compounds 8b, 8d, 8e, 8i, 8j and 8l–n were selected to be examined for their in vitro growth inhibitory activity. The anticancer assays were carried out according to the protocol of the Drug Evaluation Branch, NCI, Bethesda. The selected pyridine-ureas were tested at one dose primary anticancer assay against a panel of approximately 58 cancer lines (concentration 10^−5 M). The tested human cancer cell lines emerged from nine different cancer subtypes: leukemia, colon, melanoma, ovarian, lung, CNS, renal, breast and prostate cancers. The sulforhodamine B (SRB) protein assay was adopted to estimate the cell viability and growth. The results were reported as mean-graph of the percentage growth of the treated cells, and presented as percentage growth inhibition (GI%) caused by the test compounds (Table 2).
# (§2) The anticancer assays were performed in accordance with the protocol of the Drug Evaluation Branch, NCI, Bethesda. A 48 h drug exposure protocol was used and sulforhodamine B (SRB) protein assay was applied to estimate the cell viability and growth, as reported earlier.
# [2] = system: HCC-2998; experiment: NCI one-dose SRB assay (Colon Cancer); details: for Growth Percent: HCC-2998, 1.00E-5 Molar; for inhibition at 10 µM: Homo sapiens, read-out: Percentage growth inhibition (GI%)
# Protocol: as §1, §2
# [3] = system: HCT-116; experiment: NCI one-dose SRB assay (Colon Cancer); details: for Growth Percent: HCT-116, 1.00E-5 Molar; for inhibition at 10 µM: Homo sapiens, read-out: Percentage growth inhibition (GI%)
# Protocol: as §1, §2
# [4] = system: HCT-15; experiment: NCI one-dose SRB assay (Colon Cancer); details: for Growth Percent: HCT-15, 1.00E-5 Molar; for inhibition at 10 µM: Homo sapiens, read-out: Percentage growth inhibition (GI%)
# Protocol: as §1, §2
# [5] = system: HT29; experiment: NCI one-dose SRB assay (Colon Cancer); details: for Growth Percent: HT29, 1.00E-5 Molar; for inhibition at 10 µM: Homo sapiens, HT-29, read-out: Percentage growth inhibition (GI%)
# Protocol: as §1, §2
# [6] = system: KM12; experiment: NCI one-dose SRB assay (Colon Cancer); details: for Growth Percent: KM12, 1.00E-5 Molar; for inhibition at 10 µM: Homo sapiens, read-out: Percentage growth inhibition (GI%)
# Protocol: as §1, §2
# [7] = system: SW-620; experiment: NCI one-dose SRB assay (Colon Cancer); details: for Growth Percent: SW-620, 1.00E-5 Molar; for inhibition at 10 µM: Homo sapiens, read-out: Percentage growth inhibition (GI%)
# Protocol: as §1, §2
# [8] = system: DU-145; experiment: NCI one-dose SRB assay (Prostate); details: for Growth Percent: DU-145, 1.00E-5 Molar; for inhibition at 10 µM: Homo sapiens, read-out: Percentage growth inhibition (GI%)
# Method in brief: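 Human cancer cells are exposed for 48 h to one dose (10^−5 M) of test compound, then cell growth is measured by SRB protein assay. Data appear as GI%.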
# [9] = system: BT-549; experiment: NCI one-dose SRB assay (Breast Cancer); details: for Growth Percent: BT-549, 1.00E-5 Molar; for inhibition at 10 µM: Homo sapiens, read-out: Percentage growth inhibition (GI%)
# Protocol: as §1, §2
# [10] = system: HS 578T; experiment: NCI one-dose SRB assay (Breast Cancer); details: for Growth Percent: 1.00E-5 Molar; for inhibition at 10 µM: Homo sapiens, read-out: Percentage growth inhibition (GI%)
# Protocol: as §1, §2
# [11] = system: MCF7; experiment: NCI one-dose SRB assay (Breast Cancer); details: for Growth Percent: MCF7, 1.00E-5 Molar; for inhibition at 10 µM: Homo sapiens, read-out: Percentage growth inhibition (GI%)
# Protocol: as §1, §2
# [12] = system: MDA-MB-231; experiment: NCI one-dose SRB assay (Breast Cancer); details: for Growth Percent: MDA-MB-231/ATCC, 1.00E-5 Molar; for inhibition at 10 µM: Homo sapiens, read-out: Percentage growth inhibition (GI%)
# Protocol: as §1, §2
# [13] = system: MDA-MB-468; experiment: NCI one-dose SRB assay (Breast Cancer); details: for Growth Percent: MDA-MB-468, 1.00E-5 Molar; for inhibition at 10 µM: Homo sapiens, read-out: Percentage growth inhibition (GI%)
# Protocol: as §1, §2
# [14] = system: T-47D; experiment: NCI one-dose SRB assay (Breast Cancer); details: for Growth Percent: 1.00E-5 Molar; for inhibition at 10 µM: Homo sapiens, T47D, read-out: Percentage growth inhibition (GI%)
# Protocol: as §1, §2
Molecule,Growth Percent [1] [%],Growth Percent [2] [%],Growth Percent [3] [%],Growth Percent [4] [%],Growth Percent [5] [%],Growth Percent [6] [%],Growth Percent [7] [%],Growth Percent [8] [%],Growth Percent [9] [%],Growth Percent [10] [%],Growth Percent [11] [%],Growth Percent [12] [%],Growth Percent [13] [%],Growth Percent [14] [%],"inhibition at 10 µM ([1]; COLO 205, 10 μM) [%]","inhibition at 10 µM ([2]; HCC-2998, 10 μM) [%]","inhibition at 10 µM ([3]; HCT-116, 10 μM) [%]","inhibition at 10 µM ([4]; HCT-15, 10 μM) [%]","inhibition at 10 µM ([5]; HT29, 10 μM) [%]","inhibition at 10 µM ([6]; KM12, 10 μM) [%]",other results
"1-(4-Chloro-4-(trifluoromethyl)cyclohexa-2,5-dien-1-yl)-3-(6-(3,4-dimethoxyphenyl)-2-methylpyridin-3-yl)urea [Compound 8l]",93.52,93.63,45.30,49.62,56.20,70.44,90.92,80.60,88.97,81.01,58.28,88.41,48.57,49.20,–,–,–,–,–,–,"Percentage growth inhibition (GI%) ([1]; COLO 205, 10 μM): - (Only GI% higher than 10% are shown); Percentage growth inhibition (GI%) ([2]; HCC-2998, 10 μM): - (Only GI% higher than 10% are shown); Percentage growth inhibition (GI%) ([3]; HCT-116, 10 μM): 55%; Percentage growth inhibition (GI%) ([4]; HCT-15, 10 μM): 51%; Percentage growth inhibition (GI%) ([5]; HT29, 10 μM): 44%; Percentage growth inhibition (GI%) ([6]; KM12, 10 μM): 30%; Percentage growth inhibition (GI%) ([7]; SW-620, 10 μM): 10%; Percentage growth inhibition (GI%) ([8]; DU-145, 10 μM): 20%; Percentage growth inhibition (GI%) ([9]; BT-549, 10 μM): 12%; Percentage growth inhibition (GI%) ([10]; 10 μM): 19%; Percentage growth inhibition (GI%) ([11]; MCF7, 10 μM): 42%; Percentage growth inhibition (GI%) ([12]; MDA-MB-231, 10 μM): 12%; Percentage growth inhibition (GI%) ([13]; MDA-MB-468, 10 μM): 52%; Percentage growth inhibition (GI%) ([14]; 10 μM): 51%"
"COc1ccc(-c2ccc(NC(=O)Nc3ccc(Cl)cc3)c(C)n2)cc1 [Compound 8d, 1-(4-Chlorophenyl)-3-(6-(4-methoxyphenyl)-2-methylpyridin-3-yl) Urea]",102.39,104.24,76.10,85.74,85.13,93.09,77.06,98.63,96.71,98.36,74.74,97.34,91.54,72.90,< 10,< 10,24,15,15,< 10,"inhibition at 10 µM ([7]; SW-620, 10 μM): 23%; inhibition at 10 µM ([8]; DU-145, 10 μM): < 10%; inhibition at 10 µM ([9]; BT-549, 10 μM): < 10%; inhibition at 10 µM ([10]; 10 μM): < 10%; inhibition at 10 µM ([11]; MCF7, 10 μM): 26%; inhibition at 10 µM ([12]; MDA-MB-231, 10 μM): < 10%; inhibition at 10 µM ([13]; MDA-MB-468, 10 μM): < 10%; inhibition at 10 µM ([14]; 10 μM): 28%"
"COc1ccc(-c2ccc(NC(=O)Nc3cccc(C(F)(F)F)c3)c(C)n2)cc1OC [Compound 8i, 1-(6-(3,4-Dimethoxyphenyl)-2-methylpyridin-3-yl)-3-(3-(trifluoromethyl)phenyl) Urea]",88.09,84.39,17.63,48.77,59.96,66.00,91.19,82.57,71.52,74.54,62.46,69.50,49.56,53.57,12,16,83,52,41,34,"inhibition at 10 µM ([7]; SW-620, 10 μM): < 10%; inhibition at 10 µM ([8]; DU-145, 10 μM): 18%; inhibition at 10 µM ([9]; BT-549, 10 μM): 29%; inhibition at 10 µM ([10]; 10 μM): 26%; inhibition at 10 µM ([11]; MCF7, 10 μM): 38%; inhibition at 10 µM ([12]; MDA-MB-231, 10 μM): 31%; inhibition at 10 µM ([13]; MDA-MB-468, 10 μM): 51%; inhibition at 10 µM ([14]; 10 μM): 47%"
"COc1ccc(-c2ccc(NC(=O)Nc3cccc(Cl)c3)c(C)n2)cc1OC [Compound 8j, 1-(3-Chlorophenyl)-3-(6-(3,4-dimethoxyphenyl)-2-methylpyridin-3-yl) Urea]",93.06,88.09,63.31,60.62,74.98,78.93,98.24,101.79,91.71,95.46,75.86,87.05,71.36,49.90,< 10,12,37,40,26,22,"inhibition at 10 µM ([7]; SW-620, 10 μM): < 10%; inhibition at 10 µM ([8]; DU-145, 10 μM): < 10%; inhibition at 10 µM ([9]; BT-549, 10 μM): < 10%; inhibition at 10 µM ([10]; 10 μM): < 10%; inhibition at 10 µM ([11]; MCF7, 10 μM): 25%; inhibition at 10 µM ([12]; MDA-MB-231, 10 μM): 13%; inhibition at 10 µM ([13]; MDA-MB-468, 10 μM): 29%; inhibition at 10 µM ([14]; 10 μM): 51%"
